In PMC5922347, “Application of polymersomes engineered to target p32 protein for detection of small breast tumors in mice” (Oncotarget, 2018):
Several values for one entry are separate records, joined by “and”; a condition that tells them apart may be missing. Equal entries are not always repeated.

Legend:
NRP-1 [1] = target: T1, NRP-1 (Homo sapiens, UniProt O14786); conditions: unless proteolytically processed by uPA; cited from earlier work
[2] = DLS size and polydispersity of polymersomes; assay type: physicochemical; conditions: 3 independent measurements
Description: (§1) DLS and Z-potential measurements (Zetasizer Nano ZS, Malvern Instruments, USA) were used to assess the average size, polydispersity, and surface charge of polymersome preparations. The size was measured at a concentration of 1 mg polymer/mL in PBS (10 mM of phosphate and 137 mM of NaCl). The z-potential was measured at 0.2 mg of polymer/mL in NaCl 10 mM). TEM was used to assess the size and morphology of assembled vesicles. Briefly, polymersomes were deposited from a water solution onto copper grids at 1mg/mL, stained with 0.75% phosphotungstic acid (pH 7), air-dried, and imaged by TEM (Tecnai 10, Philips, Netherlands). The number of polymersomes in the suspension was measured using the ZetaWiew instrument (Particle Metrix GmbH, Germany).

[3] = Z-potential measurement of polymersomes; assay type: physicochemical; conditions: 0.2 mg polymer/mL in NaCl 10 mM; 3 independent measurements
Description: as §1

[4] = tested on: orthotopic 4T1 breast tumors; experiment: In vivo PET-CT imaging of radiolabeled polymersomes in 4T1 tumor mice; design: species or system Balb/c mice
Description: (§2) For tumor induction, 1 million 4T1 cells in 50μL of PBS were orthotopically implanted in the mammary gland of Balb/c mice (Charles River Laboratories, Spain). After 3 days, when the tumor volume had reached ∼18 mm^3, the mice were injected in tail vein with 3.7-7.4MBq of radiolabeled polymersomes (1mg polymer, 100 μL, N=5 mice) and subjected to PET-CT scans. During the scan acquisitions the mice were kept anesthetized with 1.5−2% isofluorane blended with O2. The PET-CT scans were performed at 10 min, 2, 6, 12, 24, and 48 h using the Argus PET-CT scanner (Sedecal, Molecular Imaging, Spain). First, PET scans were acquired using the following acquisition protocol: whole body emission scan, 2 beds, 10 min of total acquisition time for the scans at 10 min, 2, 6, 12, and 24 h post-injection and 20 min for the 48 h time point. The acquisition method was static, using 400-700KeV energetic window, FBP reconstruction algorithm, with correction for scatter coincidences. For the CT scans the used current was 140μA, 40kV of voltage, rotation of 360 degrees, 4 shoots, 1 bed, acquisition time of 6 min, and a reconstruction binning of 2. After 48 h of radiolabeled polymersome injection the mice were sacrificed and the tumor, blood, and organs were excised and further used for biodistribution studies. The PET-CT images were processed with the Medical Image Data Examiner AMIDE software. The CT and PET images were overlaid, the tumor volume was manually extracted from the CT scans and the same ROI was applied in the PET images, averaged, and expressed as percentage of injected dose per cubic centimeter of tissue (ID/cc). For the rendered 3D PET-CT images, PMOD image analysis software (PMOD Technologies Ltd, Zürich, Switzerland) was used. A 3D Gauss Filter of 1.5x1.5x1.5mm was applied to the PET image in order to increase the signal to noise ratio for 3D visualization.

[5] = Elimination rate of 124I from whole-body PET signal; design: species or system Balb/c mice; conditions: mouse, in vivo
Description: (§3) For biodistribution studies, the tumor, blood, and organs were weighed and the radioactivity was measured using the automatic gamma counter. A standard curve was generated using ^124I to determine the relationship between cpm and Bq. The biodistribution was expressed as percentage of injected dose per gram of tissue (ID/g). To determine the elimination rate of polymersomes, the radioactive signal in the whole mouse body was measured from the PET images at 10 min, 2, 6, 12, 24, and 48 h post-injection and normalized by the signal at 10 min post-injection. The elimination rate was expressed as signal in mouse x 100 divided by the signal at time zero.

NRP-1 [6] = target: T1, NRP-1; experiment: Binding of radiolabeled polymersomes to NRP1-coated magnetic beads; conditions: 1 h incubation, gamma counter, N=3
[7] = tested on: orthotopic 4T1 breast tumors; experiment: Ex vivo biodistribution by gamma counter in 4T1 tumor mice; design: species or system Balb/c mice; conditions: for Increase in tumor accumulation by LinTT1 functionalization: versus untargeted polymersomes, 48 h, % ID/g
Description: as §2, §3

[8] = tested on: human recombinant p32 protein; experiment: Binding of radiolabeled polymersomes to p32-coated magnetic beads; conditions: p32-coated Ni-NTA magnetic beads, 1 h, room temperature, 1% BSA, gamma counter, N=3
Description: Recombinant hexahistidine–tagged p32 was bacterially expressed and purified as previously described. For protein binding assays, Ni-NTA magnetic agarose beads (Qiagen, Germany) in binding buffer (50 mM Tris pH 7.4, 150 mM NaCl, 5mM imidazole) were coated with p32 protein at 15 μg of protein/10μL beads. Radiolabeled polymersomes were incubated with the p32-coated beads in binding buffer containing 1% BSA at room temperature for 1 h. The magnetic beads were washed with binding buffer and resuspended in a final volume of 1mL of binding buffer. The radioactivity of each sample was quantified by automatic gamma counter (2470 Wizard 2, Perkin Elmer).

[9] = 48 h after i.v. injection, gamma counter

T1 sequence (O14786 22-923): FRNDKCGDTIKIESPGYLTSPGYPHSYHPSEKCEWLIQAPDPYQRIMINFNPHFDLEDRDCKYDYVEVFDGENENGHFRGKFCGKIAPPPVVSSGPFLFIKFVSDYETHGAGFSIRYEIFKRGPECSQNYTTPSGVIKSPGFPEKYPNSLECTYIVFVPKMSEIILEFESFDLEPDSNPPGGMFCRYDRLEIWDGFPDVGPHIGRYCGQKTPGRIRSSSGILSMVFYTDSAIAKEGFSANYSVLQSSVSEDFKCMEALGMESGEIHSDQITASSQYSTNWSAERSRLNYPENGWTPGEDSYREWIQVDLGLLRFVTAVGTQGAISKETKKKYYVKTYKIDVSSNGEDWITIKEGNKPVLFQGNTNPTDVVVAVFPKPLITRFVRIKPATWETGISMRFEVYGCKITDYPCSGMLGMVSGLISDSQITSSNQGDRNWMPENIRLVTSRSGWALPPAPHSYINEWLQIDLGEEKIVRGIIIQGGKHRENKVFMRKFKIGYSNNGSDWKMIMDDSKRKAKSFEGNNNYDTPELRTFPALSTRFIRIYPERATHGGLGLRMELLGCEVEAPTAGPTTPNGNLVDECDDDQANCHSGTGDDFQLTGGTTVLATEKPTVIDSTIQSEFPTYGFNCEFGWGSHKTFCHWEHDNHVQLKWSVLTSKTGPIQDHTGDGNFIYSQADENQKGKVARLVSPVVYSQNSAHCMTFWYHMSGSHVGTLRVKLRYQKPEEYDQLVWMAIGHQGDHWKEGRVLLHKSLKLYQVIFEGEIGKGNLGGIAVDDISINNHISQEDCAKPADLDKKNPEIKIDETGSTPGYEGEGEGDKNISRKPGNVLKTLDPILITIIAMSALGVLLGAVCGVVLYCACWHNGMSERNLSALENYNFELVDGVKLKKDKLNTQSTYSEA

For AKRGARSTA [LinTT1], the “Binding of the peptide to NRP-1” value (NRP-1 [1]) is given as “does not bind”.
For “Cys-Tyr-Ahx-LinTT1 [LinTT1-Tyr-PS, PEG-PCL polymersomes functionalized with Cys-Tyr-Ahx-LinTT1 peptide]”, the Pdi ([2]; 1 mg polymer/mL in PBS) was 0.15, the “Size (hydrodynamic diameter)” value ([2]; intensity distribution, 1 mg polymer/mL in PBS (10 mM phosphate, 137 mM NaCl)) was ~130 nm and 124 ± 62 nm and the Z-pot [3] was -0.1 ± 4 mV.
In the case of “Cys-Tyr-Ahx-LinTT1 [LinTT1-Tyr-^124I-PS, 124I-radiolabeled PEG-PCL polymersomes functionalized with Cys-Tyr-Ahx-LinTT1 peptide]”, the “AUC in tumor, increase over non-targeted polymersomes” value ([4]; AUC of % ID/cc tumor versus time, 10 min to 48 h, N=5 mice) was ~60%, the “Tumor accumulation at 48 h” value ([4]; PET quantification, 48 h after i.v. injection, N=5 mice, SEM) was 12±0.9 ID/cc and the “Tumor accumulation at 24 h, increase over untargeted polymersomes” value ([4]; PET, 24 h after injection, N=5 mice) was 67%. For the same substance, the “Accumulation in tumor at 24 h” value ([4]; i.v., 1 mg polymer, tumors ~20 mm^3, 24 h after administration, PET quantification) was “up to 20 % ID/cc”, the “Tumor accumulation (no time stated)” value ([4]; i.v., PET quantification, discussion statement) was > 20 % ID/cc and the “Injected polymersomes (124I) remaining in the body after 48 h” value [5] was 45%. The “Injected polymersomes (124I) remaining in the body at 24 h” value [5] was 67%, the “Binding to NRP-1” value (NRP-1 [6]) was “did not bind” and the “Accumulation in sentinel lymph node relative to Tyr-124I-PS” value [7, 9] was “more than 2 fold”. The “Ratio of % ID/g in tumor to liver” value [7, 9] was 2.5 times, the “Accumulation in tumors at 48 h” value ([7]; excised tumors, gamma counter, 48 h after i.v. injection, N=6, SEM) was 26±3 % ID/g and the “Increase in tumor accumulation by LinTT1 functionalization” value [7] was > 70%. The “Increase in tumor accumulation by LinTT1 functionalization” value ([7]; listed as LinTT1-polymersomes) was “about 70%” and the “Increase in binding to p32 beads compared to non-targeted polymersomes” value [8] was ~10 fold.
